What was measured:
JNK2 = JNK2 (Homo sapiens (Human), UniProt P45984); assay: JNK2 TR-FRET kinase assay (Example 14); format: biochemical; conditions: procedures of Example 14 (TR-FRET)
In short: (§1)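 Two TR-FRET formats were used for each JNK isoform. In the direct one, preactivated aJNK phosphorylated EPIW-1 at about 1 mM final ATP (RT, 15 min). Both were EDTA-quenched and read by HTRF.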

JNK3 = JNK3 (Homo sapiens (Human), UniProt P53779); assay: JNK3 TR-FRET kinase assay (Example 14); format: biochemical; conditions: procedures of Example 14 (TR-FRET)
JNK3, sequence (P53779 whole entry, species assumed): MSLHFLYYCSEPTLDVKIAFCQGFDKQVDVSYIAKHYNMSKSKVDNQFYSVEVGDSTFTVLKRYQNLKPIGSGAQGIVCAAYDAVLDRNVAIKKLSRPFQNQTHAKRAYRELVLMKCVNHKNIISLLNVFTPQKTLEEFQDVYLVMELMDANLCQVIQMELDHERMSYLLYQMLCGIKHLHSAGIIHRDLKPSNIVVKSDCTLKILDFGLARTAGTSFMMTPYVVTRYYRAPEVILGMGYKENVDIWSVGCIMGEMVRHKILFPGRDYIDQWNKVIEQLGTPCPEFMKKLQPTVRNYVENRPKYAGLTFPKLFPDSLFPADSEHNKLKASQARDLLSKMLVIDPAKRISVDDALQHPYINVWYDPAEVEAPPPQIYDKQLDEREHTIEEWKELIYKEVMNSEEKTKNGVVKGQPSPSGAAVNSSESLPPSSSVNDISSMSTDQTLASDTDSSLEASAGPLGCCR
In short: as §1

JNK1 = JNK1 (Homo sapiens (Human), UniProt P45983); assay: JNK1 TR-FRET kinase assay (Example 14); format: biochemical; conditions: procedures of Example 14 (TR-FRET)
JNK1, sequence (P45983 other isoform, or with tags, fused parts or gaps isoform P45983-2, species assumed): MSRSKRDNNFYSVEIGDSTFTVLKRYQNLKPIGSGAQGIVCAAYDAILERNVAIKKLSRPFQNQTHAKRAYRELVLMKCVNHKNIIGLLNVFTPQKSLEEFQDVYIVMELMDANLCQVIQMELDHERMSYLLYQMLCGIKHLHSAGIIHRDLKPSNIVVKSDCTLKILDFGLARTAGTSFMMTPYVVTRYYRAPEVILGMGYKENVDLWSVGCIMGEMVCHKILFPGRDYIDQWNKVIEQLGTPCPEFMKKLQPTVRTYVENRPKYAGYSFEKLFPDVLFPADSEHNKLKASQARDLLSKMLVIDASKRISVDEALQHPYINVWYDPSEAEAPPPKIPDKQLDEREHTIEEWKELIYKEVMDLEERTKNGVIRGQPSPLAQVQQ
In short: as §1

[1] = system: phosphorylated c-jun (p-cjun); assay: Inhibition of kainic acid induced phospho-cJun upregulation in mice hippocampi; format: in vivo
Method: Female, FVB/N mice (Taconic) were treated by oral gavage (PO) with one 300 mg/kg dose of N-(4-chloro-3-(1H-1,2,4-triazol-5-yl)thiophen-2-yl)-2-(isoquinolin-5-yl)acetamide or vehicle (0.9% saline) at a 5 ml/kg dose volume. Control animals were dosed with vehicle. Thirty minutes later animals were treated interperitoneally with 25 mg/kg of kainic acid or saline at a 10 ml/kg dose volume. Kainic acid was formulated in 0.9% saline. Four hours after kainic acid administration animals were euthanized by carbon dioxide and were transcardially perfused with 0.9% saline. Brains were removed, and separated into left and right hemispheres. The hippocampus was dissected from the right hemisphere, frozen on dry ice and kept at −80° C. until used for quantitation of p-cjun levels.
Preweighed hippocampus tissues were homogenized in cold cell extraction buffer (CEB) containing 1% Triton X-100, 0.1% SDS, 0.5% deoxycholate, 20 mM Na4P2O7, 2 mM Na3VO4, 0.1% SDS and protease inhibitors (PI, 2 mg/mL aprotinin and 1 mg/mL leupeptin) at a ratio of 9:1 CEB to wet tissue weight. Homogenized samples were analyzed using PathScan Phospho-c-Jun (Ser63) Sandwich ELISA Kit II from Cell Signaling Technology. Samples were diluted 1:10 in sample diluent provided in the kit. An 8-point standard curve was prepared by diluting a 10 ng/mL phos-c-Jun standard 1:3 in 10% CEB/PI in sample diluent. Samples and standards were added at 100 μL per well to prewetted ELISA plates which contain a phos-c-jun (ser63)-specific rabbit monoclonal capture antibody and incubated overnight at 4° C. The plate was then allowed to warm to room temperature and washed three times using TBS+0.05% Tween 20 (TTBS). To each well were added 100 μL of a mouse monoclonal c-Jun detection antibody and the plate was incubated at 37° C. for 1 hour. The plate was washed three times in TTBS, then 100 μL per well of an anti-mouse IgG HRP-linked antibody was added. […] The colorimetric reaction was read using a Molecular Devices Spectramax plate reader and sample data was calculated from the standard curve fit to a 4-parameter function.

JNK2, sequence (P45984 whole entry, species assumed, canonical isoform): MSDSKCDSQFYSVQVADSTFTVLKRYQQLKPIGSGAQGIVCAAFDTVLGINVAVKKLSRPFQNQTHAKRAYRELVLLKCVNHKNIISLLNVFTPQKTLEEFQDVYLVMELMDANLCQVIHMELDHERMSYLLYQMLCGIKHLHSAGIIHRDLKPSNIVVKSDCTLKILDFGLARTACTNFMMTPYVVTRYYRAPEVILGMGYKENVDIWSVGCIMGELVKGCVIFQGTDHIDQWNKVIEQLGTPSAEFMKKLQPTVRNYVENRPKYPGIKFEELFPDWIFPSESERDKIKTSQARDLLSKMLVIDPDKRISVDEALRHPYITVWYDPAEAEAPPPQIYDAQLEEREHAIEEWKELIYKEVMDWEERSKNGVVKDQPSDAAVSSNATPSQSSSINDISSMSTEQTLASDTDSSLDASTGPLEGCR

Row | IC50 (JNK2) [nM] | IC50 (JNK3) [nM] | IC50 (JNK1) [nM] | SMILES | reduction of p-cjun in the hippocampus ([1]; FVB mice, 300 mg/kg, 4 hours after treatment with kainic acid, statistically significant (unpaired t-test)) [%] | p-cJun Mean ([1]; female FVB/N mice, 300 mg/kg PO 30 min before 25 mg/kg kainic acid i.p., hippocampus 4 h after kainic acid) [ng/mL] | p-cJun % of Vehicle ([1]; female FVB/N mice, 300 mg/kg PO, hippocampus 4 h after kainic acid, relative to kainic acid + vehicle group) [%]
1 | 100 to 10000 | 100 to 10000 | 100 to 10000 | O=C(Cc1cccc2cnccc12)Nc1ccsc1-c1nccs1 [2-(isoquinolin-5-yl)-N-(2-(thiazol-2-yl)thiophen-3-yl)acetamide] |  |  | 
2 | < 100 | < 100 | < 100 | Cc1n[nH]c(-c2c(C)csc2NC(=O)CN2C(=O)CCc3ccccc32)n1 [N-(4-methyl-3-(3-methyl-1H-1,2,4-triazol-5-yl)thiophen-2-yl)-2-(2-oxo-3,4-dihydroquinolin-1(2H)-yl)acetamide] |  |  | 
3 | < 100 | < 100 | < 100 | O=C(Cc1cccc2ncccc12)Nc1scc(Br)c1-c1ncn[nH]1 [N-(4-bromo-3-(1H-1,2,4-triazol-5-yl)thiophen-2-yl)-2-(quinolin-5-yl)acetamide] |  |  | 
4 | < 100 | < 100 | < 100 | CN(C)CCCn1cnc(-c2c(Cl)csc2NC(=O)Cn2c(=O)ccc3cc(C(F)(F)F)ccc32)n1 [N-(4-chloro-3-(1-(3-(dimethylamino)propyl)-1H-1,2,4-triazol-3-yl)thiophen-2-yl)-2-(2-oxo-6-(trifluoromethyl)quinolin-1(2H)-yl)acetamide] |  |  | 
5 | > 50000 | 100 to 10000 | > 10000 | O=C(Cc1cccc2ccccc12)Nc1ccsc1-n1ccnc1 [N-(2-(1H-imidazol-1-yl)thiophen-3-yl)2-(naphthalen-1-yl)acetamide] |  |  | 
6 | > 50000 | > 10000 | > 10000 | Cc1nc(-c2sccc2NC(=O)CN2C(=O)CCc3ccccc32)c[nH]1 [N-(2-(2-methyl-1H-imidazol-4-yl)thiophen-3-yl)-2-(2-oxo-3,4-dihydroquinolin-1(2H)-yl)acetamide] |  |  | 
7 | > 50000 | > 50000 | > 50000 | COc1ccc(CC(=O)Nc2ccsc2-n2cnc(C)c2)cc1 [2-(4-methoxyphenyl)-N-(2-(4-methyl-1H-imidazol-1-yl)thiophen-3-yl)acetamide] |  |  | 
8 | 100 to 10000 | 100 to 10000 | 100 to 10000 | O=C(Cc1cccc2cnccc12)Nc1ccsc1-c1cscn1 [2-(isoquinolin-5-yl)-N-(2-(thiazol-4-yl)thiophen-3-yl)acetamide] |  |  | 
9 | < 100 | < 100 | < 100 | Cn1cnc(-c2c(C#N)csc2NC(=O)Cc2cccc3ncccc23)n1 [N-(4-cyano-3-(1-methyl-1H-1,2,4-triazol-3-yl)thiophen-2-yl)-2-(quinolin-5-yl)acetamide] |  |  | 

Row | SMILES | IC50 (JNK2) [nM] | IC50 (JNK3) [nM] | IC50 (JNK1) [nM] | reduction of p-cjun in the hippocampus ([1]; FVB mice, 300 mg/kg, 4 hours after treatment with kainic acid, statistically significant (unpaired t-test)) [%] | p-cJun Mean ([1]; female FVB/N mice, 300 mg/kg PO 30 min before 25 mg/kg kainic acid i.p., hippocampus 4 h after kainic acid) [ng/mL] | p-cJun % of Vehicle ([1]; female FVB/N mice, 300 mg/kg PO, hippocampus 4 h after kainic acid, relative to kainic acid + vehicle group) [%]
10 | O=C(Cc1cccc2cnccc12)Nc1scc(Cl)c1-c1ncn[nH]1 [N-(4-chloro-3-(1H-1,2,4-triazol-5-yl)thiophen-2-yl)-2-(isoquinolin-5-yl)acetamide] | < 100 | < 100 | < 100 | 51 | 0.927 | 49.2

From patent publication US9796706B2, “Inhibitors of Jun N-terminal kinase” (IMAGO PHARMACEUTICALS, INC., priority 2009, dated 2017)
